From patent US6545182B2, “Methods and compositions for modulating alpha adrenergic receptor activity” (Allergan Sales, Inc., priority 2000, dated 2003)

What was measured:
Sprague-Dawley rats = test: rat locomotor model to assess sedation; type: in vivo; settings: 30 minutes after injection, vs vehicle controls
Procedure: (§1) The physiological activity of these compounds was tested using four models: a rat locomotor model to assess sedation, an assay of cardiovascular activity in monkeys, a rat thermal paw withdrawal assay (Dirig et al., J. Neurosci. Methods 76:183-191 (1997) to test the alleviation of acute pain, and the rat spinal nerve ligation allodynia model (Kim and Chung, Pain 50:355-363 (1992) to assess the alleviation of neuropathic pain and central sensitization typical of chronic pain. As is known to those of skill in the art, these tests are established pharmacological methods for determining sedation, cardiovascular effects, acute pain and chronic pain, respectively, of pharmaceutical agents.
To test sedation, six male Sprague-Dawley rats were given up to 3 mg/kg of each compound in a saline or DMSO vehicle by intraperitoneal injection (i.p.). Sedation was graded 30 minutes following administration of the drug by monitoring locomotor skills as follows.
The Sprague-Dawley rats are weighed and 1 ml/kg body weight of an appropriate concentration (i.e. 3 mg/ml for a final dose of 3 mg/kg) drug solution is injected intraperitoneally. FORMULA 3 is formulated in approximately 10% DMSO and FORMULA 2 and FORMULA 4 are formulated in 50% DMSO. The results are compared to 29 historical controls that were injected with 1 ml/kg saline or 50% DMSO. Rat activity is then determined 30 minutes after injection of the drug solution. Rats are placed in a dark covered chamber and a digicom analyzer (Omnitech Electronic) quantitates their exploratory behavior for a five-minute period. The machine records each time the rat interrupts an array of 32 photoelectric beams in the X and Y orientation.

[1] = system: rats with ligated L5 and L6 spinal nerves; test: rat spinal nerve ligation allodynia model (chronic pain); type: in vivo; settings: for reduction of the response to tactile stimuli that indicate tactile allodynia: von Frey hairs
Procedure: as §1
A model for chronic pain (in particular peripheral neuropathy such as causalgia) involves the surgical ligation of the L5 (and optionally the L6) spinal nerves on one side in experimental animals. Rats recovering from the surgery gain weight and display a level of general activity similar to that of normal rats. However, these rats develop abnormalities of the foot, wherein the hindpaw is moderately everted and the toes are held together. More importantly, the hindpaw on the side affected by the surgery appears to become sensitive to pain from low-threshold mechanical stimuli, such as that producing a faint sensation of touch in a human, within about 1 week following surgery. This sensitivity to normally non-painful touch is called “tactile allodynia” and lasts for at least two months. The response includes lifting the affected hindpaw to escape from the stimulus, licking the paw and holding it in the air for many seconds. None of these responses is normally seen in the control group.
Rats are anesthetized before surgery. The surgical site is shaved and prepared either with betadine or Novacaine. Incision is made from the thoracic vertebra Xlll down toward the sacrum. Muscle tissue is separated from the spinal vertebra (left side) at the L4-S2 levels. The L6 vertebra is located and the transverse process is carefully removed with a small rongeur to expose the L4-L6 spinal nerves. The L5 and L6 spinal nerves are isolated and tightly ligated with 6-0 silk thread. The same procedure is done on the right side as a control, except no ligation of the spinal nerves is performed.
A complete hemostasis is confirmed, then the wounds are sutured. A small amount of antibiotic ointment is applied to the incised area, and the rat is transferred to the recovery plastic cage under a regulated heat-temperature lamp. On the day of the experiment, at least seven days after the surgery, six rats per test group are administered the test drugs by intraperitoneal (i.p.) injection or oral gavage. For i.p. injection, the compounds are formulated in approximately 50% DMSO and given in a volume of 1 ml/kg body weight. FORMULA 2 was tested at doses ranging between 1 and 300 μg /kg, FORMULA 3 was tested at doses between 0.1 and 3 mg/kg and FORMULA 4 was tested at doses of 0.3 and 3 mg/kg. FORMULA 2 was also administered by oral gavage at doses of 0.1, 0.3 and 1 mg/kg body weight to 24-hour fasted rats. A volume equal to 1 ml/kg body weight of an appropriate concentration (i.e. 1 mg/ml for a 1 mg/kg dose) of FORMULA 2 formulated in approximately 50% DMSO was injected using an 18-gauge, 3-inch gavage needle that is slowly inserted through the esophagus into the stomach.
Tactile allodynia is measured prior to and 30 minutes after drug administration using von Frey hairs that are a series of fine hairs with incremental differences in stiffness. Rats are placed in a plastic cage with a wire mesh bottom and allowed to acclimate for approximately 30 minutes. The von Frey hairs are applied perpendicularly through the mesh to the mid-plantar region of the rats' hindpaw with sufficient force to cause slight buckling and held for 6-8 seconds. The applied force has been calculated to range from 0.41 to 15.1 grams. If the paw is sharply withdrawn, it is considered a positive response. […]

patient one = test: treatment of allodynia resulting from shingles in a patient; type: in vivo, human; settings: oral dose in capsule form, two days' treatment
Excerpt: person one in generally good physical condition suffers from serious pain to their upper body due caused by contact of their skin with their clothing. The patient is unable to wear clothing on their upper body without severe pain.
The patient is given a therapeutically effective oral dose of FORMULA 3 in capsule form as needed for the treatment of pain.
Same facts as in Example 5, except the patient is given a therapeutically effective oral dose of FORMULA 2 in capsule form as needed for the treatment of pain.

patient two = test: treatment of visceral pain in a colon cancer patient; type: in vivo, human; settings: intravenous infusion twice daily, after two days
Excerpt: patient two suffering from colon cancer and undergoing chemotherapy experiences severe visceral pain associated with this primary condition. Treatment of this pain with opiates have been ineffective to provide substantial relief.
The patient is given a therapeutic amount of FORMULA 3 by intravenous infusion in a pharmaceutically acceptable vehicle. The treatment is given twice daily.
Under the same facts as Example 7, except the patient is given FORMULA 2 instead of FORMULA 3.

SMILES | reduction in the exploratory activity of the rats (sedation) (Sprague-Dawley rats; 3 mg/kg i.p.) | analgesic activity (tactile allodynia) ([1]; i.p., doses up to 3 mg/kg, 30 minutes after drug) | reduction in the exploratory activity of the rats (sedation) (Sprague-Dawley rats; 1 mg/kg i.p.) | reduction of the response to tactile stimuli that indicate tactile allodynia ([1]; 30 minutes after drug) | percent reversal of allodynic pain ([1]; i.p. 1 mg/kg) [%] | percent reversal of allodynic pain ([1]; i.p. 3 mg/kg) [%] | percent reversal of allodynic pain ([1]; i.p. dose of 0.3 mg/kg) [%] | allodynia resulting from shingles, patient report (patient one) | visceral pain, patient report (patient two) | percent reversal of allodynia ([1]; i.p. 10 μg/kg) [%] | percent reversal of allodynia ([1]; i.p. 30 μg/kg) [%] | percent reversal of allodynia ([1]; i.p. 100 μg/kg) [%] | percent reversal of allodynia ([1]; i.p. 300 μg/kg) [%] | percent reversal of allodynia ([1]; i.p. dose of 3 μg/kg) [%] | alleviation of allodynic pain ([1]; oral doses ranging from 0.1 to 1 mg/kg, 24-hour fasted rats)
OCCNC(=S)NCc1ccccc1F [FORMULA 4] | none of the compounds caused a statistically significant reduction | no analgesic activity | – | – | – | – | – | – | – | – | – | – | – | – | –
OCCNC(=S)NCc1ccc(F)cc1 [FORMULA 3] | – | – | none of the compounds caused a statistically significant reduction | able to reduce the response to the tactile stimuli | 32 | 26 | 34 | markedly reduced | significant alleviation | – | – | – | – | – | –
OCCNC(=S)NCc1cccc(Cl)c1F [FORMULA 2, 1-(3-chloro-2-fluorobenzyl)-3-(2-hydroxyethyl)-thiourea] | – | – | none of the compounds caused a statistically significant reduction | able to reduce the response to the tactile stimuli | – | – | – | markedly reduced | significant alleviation | 85 | 90 | 95 | 92 | 55 | 82-86%
